test system: phospho-p90 RSK (RSK1 Thr359/Ser363) in A375 (Braf V600E) cells; assay: Phospho-p90 RSK ELISA using A375 (Braf V600E) cells; type: cell-based; conditions: Homo sapiens, A-375, 2 hours compound treatment, read-out: Cellular Phospho-p90RSK IC50
Experimental: In preparation for the assay, an ELISA plate with the pre-coated goat anti-mouse antibody (Thermo Scientific) was treated with a mouse anti-human RSK1 antibody (monoclonal, Invitrogen) at 1:800 dilution (150 ng/well) in PBS, and the plate was placed on a plate shaker at 4° C. overnight. […] After two […] of the compound treatment, the supernatant was removed from the cell plate, and cells were lysed in 100 μl per well of cell lysis buffer (Cell Signaling Technologies) containing phosphatase and protease inhibitors (Cell Signaling Technologies) on a plate shaker at 4° C. for 20 minutes. The ELISA plate was washed four times with ELISA wash buffer (Thermo Scientific) prior to addition of 100 μL cell lysate. The lysate was incubated on the ELISA plate with gentle shaking at room temperature for 2 hours. The contents of the wells were removed, and the ELISA plate was washed four times with wash buffer, and incubated with 100 μL per well of anti-phospho-RSK1 (Thr359/Ser363) rabbit monoclonal antibody (Millipore) at dilution of 1:1000 in StartingBlock buffer (Thermo Scientific) on a plate shaker at room temperature for 1 hour. The contents of the wells were removed, the ELISA plate was washed four times with wash buffer, and was incubated with 100 μL per well of goat anti-rabbit HRP (Thermo Scientific) at dilution of 1:3000 in StartingBlock buffer (Thermo Scientific) on a plate shaker at room temperature for 1 hour. The contents of the wells were removed, the ELISA plate was washed four times with wash buffer, and then incubated with 100 μL per well of TMB substrate solution (Thermo Scientific) on a plate shaker at room temperature for 20 minutes. Finally, 100 μL of TMB stop solution (Thermo Scientific) was added to each well and the absorbance is measured at 450 nm on a Tecan plate reader.

SMILES | IC50
Cc1cc(-c2n[nH]c3cc4c(cc23)CN([C@H]2CCN(CC(F)(F)F)C2)C(=O)N4)cc(C)n1 [Example 310] | 250 to 1000 nM
COc1ncc(-c2n[nH]c3cc4[nH]c(=O)c(C(C)c5cccc(Cl)c5)cc4cc23)cn1 (centres unmarked) [Example 129] | 250 to 1000 nM
COc1ccc(-c2n[nH]c3cc4c(cc23)CN(Cc2ccc(F)cc2)C(=O)N4)cn1 [Example 76] | ≤ 250 nM
Cc1cc(-c2n[nH]c3cc4c(cc23)CN([C@@H]2CN(CCC(F)(F)F)C[C@H]2c2ccccc2)C(=O)N4)ccn1 (mixture of isomers) [Example 387] | 250 to 1000 nM
COc1ncc(-c2n[nH]c3cc4c(cc23)CN([C@@H]2CCN(CC(F)(F)F)C2)C(=O)N4)cn1 [Example 276] | ≤ 250 nM
Cc1cc(-c2n[nH]c3cc4c(cc23)CN([C@@H]2CCCN(C3CCC3)C2)C(=O)N4)ccn1 [Example 210] | > 1000 nM
COc1ncc(-c2n[nH]c3cc4c(cc23)CN([C@@H]2CCCN(Cc3cccs3)C2)C(=O)N4)cn1 [Example 295] | ≤ 250 nM
Cc1cc(-c2n[nH]c3cc4c(cc23)CN(C2CN(CCC3CC3)C2)C(=O)N4)ccn1 [Example 189] | > 1000 nM
COc1ccc(-c2n[nH]c3cc4c(cc23)CN([C@@H]2CCN(CC(F)(F)F)C2)C(=O)N4)cn1 [Example 277] | ≤ 250 nM
Cc1cc(-c2n[nH]c3cc4[nH]c(=O)c(C(C)c5ccc(F)cc5F)cc4cc23)ccn1 (centres unmarked) [Example 312] | ≤ 250 nM
O=C1Nc2cc3[nH]nc(-c4cn[nH]c4)c3cc2CN1Cc1cccc(Cl)c1 [Example 60] | > 1000 nM
Cc1cc(-c2n[nH]c3cc4c(cc23)CN([C@@H]2CCCN(C(C)C)C2)C(=O)N4)ccn1 [Example 247] | > 1000 nM
COc1cc(-c2n[nH]c3cc4c(cc23)CN([C@@H]2CN(C)C[C@H]2c2ccccc2)C(=O)N4)ccn1 (mixture of isomers) [Example 354] | ≤ 250 nM
Cc1cc(-c2n[nH]c3cc4c(cc23)CN([C@@H]2CCCN(CC(=O)C(C)C)C2)C(=O)N4)ccn1 [Example 209] | 250 to 1000 nM
Cc1cc(-c2n[nH]c3cc4c(cc23)CN(Cc2nc(C)cs2)C(=O)N4)ccn1 [Example 246] | ≤ 250 nM
Cn1cc(-c2n[nH]c3cc4c(cc23)CN([C@@H]2CN(CC(F)(F)F)C[C@H]2c2ccccc2)C(=O)N4)cn1 [Example 352] | ≤ 250 nM
Cc1cc(-c2n[nH]c3cc4c(cc23)CN([C@@H]2CCCN(C(=O)c3ccccc3)C2)C(=O)N4)ccn1 [Example 172] | 250 to 1000 nM
O=C1Nc2cc3[nH]nc(N4CCOCC4)c3cc2CN1Cc1cccc(Cl)c1 [Example 78] | ≤ 250 nM
Cc1cc(-c2n[nH]c3cc4[nH]c(=O)c(C5CCCN(Cc6ccccc6)C5)cc4cc23)cc(C)n1 (centres unmarked) [Example 360] | 250 to 1000 nM
Cn1nccc1-c1n[nH]c2cc3c(cc12)CN([C@@H]1CCN(CC(F)(F)F)C1)C(=O)N3 [Example 265] | > 1000 nM
N#Cc1cccc(CN2Cc3cc4c(-c5ccnnc5)n[nH]c4cc3NC2=O)c1 [Example 128] | > 1000 nM
Cc1cc(-c2n[nH]c3cc4c(cc23)CN([C@H]2CCN(CC(F)(F)F)C2)C(=O)N4)ccn1 [Example 299] | ≤ 250 nM
Cc1cc(-c2n[nH]c3cc4[nH]c(=O)c(CC5CCCCC5)cc4cc23)ccn1 [Example 266] | ≤ 250 nM
CC(c1ccccc1)c1cc2cc3c(-c4cnc(N)nc4)n[nH]c3cc2[nH]c1=O (centres unmarked) [Example 334] | ≤ 250 nM
CCN1CC[C@@H](N2Cc3cc4c(-c5ccnc(C)c5)n[nH]c4cc3NC2=O)C1 [Example 256] | > 1000 nM
Cc1cc(-c2n[nH]c3cc4c(cc23)CN([C@H]2CN(CC(F)F)C[C@@H]2c2ccccc2)C(=O)N4)ccn1 [Example 383] | > 1000 nM
Cc1cc(-c2n[nH]c3cc4c(cc23)CN([C@@H]2CCCN(C3CCCC3)C2)C(=O)N4)ccn1 [Example 215] | 250 to 1000 nM
Cc1cc(-c2n[nH]c3cc4c(cc23)CN([C@H](C)CO)C(=O)N4)ccn1 [Example 54] | > 1000 nM
O=C1Nc2cc3[nH]nc(-c4ccnnc4)c3cc2CN1[C@H](CO)c1cccc(Cl)c1 [Example 117] | > 1000 nM

Reference: US10301317B2, “Inhibitors of ERK and methods of use” (Kura Oncology, Inc., priority 2013, dated 2019)
